# From PMC3950950, “Fluorescent sensors for activity and regulation of the nitrate transceptor CHL1/NRT1.1 and oligopeptide transporters” (eLife, 2014)
# Residues, ends and D or L forms follow the SMILES beside them.
# What was measured:
# Assay type in all cases: cell-based
# PepTrac4 (PTR4 fusion) = molecular target: T1, PepTrac4 (PTR4 fusion) (Arabidopsis thaliana, UniProt Q84WG0); assay: FRET ratio change of sensor in yeast; conditions: 0.5 mM diglycine; 50 mM MES pH 5.5; excitation 428 nm
# T1 construct: gene NPF8.4; full-length ORF between N-terminal Aphrodite and C-terminal mCerulean; expressed in yeast; intact cells
# T1 sequence (Q84WG0 1-545): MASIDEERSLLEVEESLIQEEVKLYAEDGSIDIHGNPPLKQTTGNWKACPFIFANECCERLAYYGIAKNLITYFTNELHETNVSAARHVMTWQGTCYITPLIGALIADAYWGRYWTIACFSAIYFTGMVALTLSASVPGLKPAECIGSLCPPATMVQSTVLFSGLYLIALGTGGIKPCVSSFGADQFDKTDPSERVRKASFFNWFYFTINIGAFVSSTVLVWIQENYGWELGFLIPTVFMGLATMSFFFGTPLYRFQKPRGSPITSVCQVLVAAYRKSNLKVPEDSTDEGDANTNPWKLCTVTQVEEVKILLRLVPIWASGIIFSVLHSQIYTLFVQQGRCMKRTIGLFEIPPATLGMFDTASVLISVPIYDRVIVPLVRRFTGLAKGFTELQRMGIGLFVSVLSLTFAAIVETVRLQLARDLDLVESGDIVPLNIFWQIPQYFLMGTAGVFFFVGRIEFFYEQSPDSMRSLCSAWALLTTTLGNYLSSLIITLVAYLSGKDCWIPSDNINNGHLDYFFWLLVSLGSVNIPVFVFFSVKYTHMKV
# PepTrac1 (PTR1 fusion) = molecular target: T2, PepTrac1 (PTR1 fusion) (Arabidopsis thaliana, UniProt Q9M390); assay: fluorescence response (donor quenching) of sensor in yeast; conditions: 0.5 mM diglycine; 50 mM MES pH 5.5; excitation 428 nm
# T2 construct: gene NPF8.1; full-length ORF between N-terminal Aphrodite and C-terminal mCerulean; expressed in yeast; intact cells
# T2 sequence (Q9M390 1-570): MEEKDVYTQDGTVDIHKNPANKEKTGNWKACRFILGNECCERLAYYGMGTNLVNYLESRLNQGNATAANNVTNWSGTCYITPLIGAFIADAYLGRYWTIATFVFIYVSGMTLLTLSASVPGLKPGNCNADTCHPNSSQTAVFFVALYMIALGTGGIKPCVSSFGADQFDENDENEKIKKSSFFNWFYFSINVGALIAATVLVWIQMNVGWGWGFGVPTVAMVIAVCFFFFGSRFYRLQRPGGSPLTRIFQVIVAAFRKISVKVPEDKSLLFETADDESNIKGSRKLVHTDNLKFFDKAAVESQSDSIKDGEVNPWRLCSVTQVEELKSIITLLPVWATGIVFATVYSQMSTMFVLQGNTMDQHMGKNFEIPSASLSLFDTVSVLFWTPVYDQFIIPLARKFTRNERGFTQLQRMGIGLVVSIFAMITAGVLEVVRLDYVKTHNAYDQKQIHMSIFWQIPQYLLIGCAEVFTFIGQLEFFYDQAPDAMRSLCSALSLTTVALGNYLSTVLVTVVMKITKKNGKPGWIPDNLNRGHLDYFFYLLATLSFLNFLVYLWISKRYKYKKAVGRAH
# PepTrac2 (PTR2 fusion) = molecular target: T3, PepTrac2 (PTR2 fusion) (Arabidopsis thaliana, UniProt P46032); assay: as above; conditions: 0.5 mM diglycine; 50 mM MES pH 5.5; excitation 428 nm
# T3 construct: gene NPF8.3; full-length ORF between N-terminal Aphrodite and C-terminal mCerulean; expressed in yeast; intact cells
# T3 sequence (P46032 1-585): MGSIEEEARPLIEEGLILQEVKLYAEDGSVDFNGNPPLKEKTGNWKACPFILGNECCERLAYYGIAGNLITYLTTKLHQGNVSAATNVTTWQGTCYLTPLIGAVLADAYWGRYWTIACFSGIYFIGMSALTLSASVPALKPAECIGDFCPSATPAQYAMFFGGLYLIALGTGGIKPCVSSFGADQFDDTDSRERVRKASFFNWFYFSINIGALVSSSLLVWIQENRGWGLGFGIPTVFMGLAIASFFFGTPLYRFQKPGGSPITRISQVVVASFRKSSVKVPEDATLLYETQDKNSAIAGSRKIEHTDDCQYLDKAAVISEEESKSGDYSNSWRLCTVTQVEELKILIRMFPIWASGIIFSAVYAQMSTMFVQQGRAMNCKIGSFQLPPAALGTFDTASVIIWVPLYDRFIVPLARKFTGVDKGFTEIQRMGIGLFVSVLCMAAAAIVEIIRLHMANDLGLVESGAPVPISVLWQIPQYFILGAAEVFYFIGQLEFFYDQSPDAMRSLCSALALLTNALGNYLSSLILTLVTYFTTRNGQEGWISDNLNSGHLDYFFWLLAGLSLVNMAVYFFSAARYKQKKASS
# PepTrac5 (PTR5 fusion) = molecular target: T4, PepTrac5 (PTR5 fusion) (Arabidopsis thaliana, UniProt Q9LFB8); assay: as above; conditions: 0.5 mM diglycine; 50 mM MES pH 5.5; excitation 428 nm
# T4 construct: gene NPF8.2; full-length ORF between N-terminal Aphrodite and C-terminal mCerulean; expressed in yeast; intact cells
# T4 sequence (Q9LFB8 1-570): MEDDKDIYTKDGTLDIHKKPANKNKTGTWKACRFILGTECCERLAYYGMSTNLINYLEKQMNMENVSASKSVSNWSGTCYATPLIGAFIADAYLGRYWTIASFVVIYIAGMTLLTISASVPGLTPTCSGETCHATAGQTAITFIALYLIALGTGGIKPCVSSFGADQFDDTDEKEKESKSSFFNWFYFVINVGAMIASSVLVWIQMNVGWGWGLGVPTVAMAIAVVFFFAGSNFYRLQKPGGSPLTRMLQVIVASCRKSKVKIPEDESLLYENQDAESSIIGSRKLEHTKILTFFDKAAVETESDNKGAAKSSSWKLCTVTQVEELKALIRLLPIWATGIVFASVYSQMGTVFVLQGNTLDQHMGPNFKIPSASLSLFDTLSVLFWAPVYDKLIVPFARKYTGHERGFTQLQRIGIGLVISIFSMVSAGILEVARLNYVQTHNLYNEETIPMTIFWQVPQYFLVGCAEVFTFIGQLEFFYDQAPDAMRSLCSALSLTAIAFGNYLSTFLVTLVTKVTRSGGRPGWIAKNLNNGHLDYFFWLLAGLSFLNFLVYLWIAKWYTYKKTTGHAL
# [1] = molecular target: T5, NiTrac1 (CHL1/NRT1.1/NPF6.3 fusion) (Arabidopsis thaliana, UniProt Q05085); assay: fluorescence response (donor quenching) of sensor in yeast, plate reader; conditions: 50 mM MES pH 5.5; high-affinity phase of biphasic response (low-affinity phase is a second site); excitation 428 nm
# T5 construct: full-length ORF between N-terminal Aphrodite t9 (yellow FP) and C-terminal mCerulean (pDRFlip30); expressed in yeast BJ5465; intact cells
# T5 sequence (Q05085 1-590): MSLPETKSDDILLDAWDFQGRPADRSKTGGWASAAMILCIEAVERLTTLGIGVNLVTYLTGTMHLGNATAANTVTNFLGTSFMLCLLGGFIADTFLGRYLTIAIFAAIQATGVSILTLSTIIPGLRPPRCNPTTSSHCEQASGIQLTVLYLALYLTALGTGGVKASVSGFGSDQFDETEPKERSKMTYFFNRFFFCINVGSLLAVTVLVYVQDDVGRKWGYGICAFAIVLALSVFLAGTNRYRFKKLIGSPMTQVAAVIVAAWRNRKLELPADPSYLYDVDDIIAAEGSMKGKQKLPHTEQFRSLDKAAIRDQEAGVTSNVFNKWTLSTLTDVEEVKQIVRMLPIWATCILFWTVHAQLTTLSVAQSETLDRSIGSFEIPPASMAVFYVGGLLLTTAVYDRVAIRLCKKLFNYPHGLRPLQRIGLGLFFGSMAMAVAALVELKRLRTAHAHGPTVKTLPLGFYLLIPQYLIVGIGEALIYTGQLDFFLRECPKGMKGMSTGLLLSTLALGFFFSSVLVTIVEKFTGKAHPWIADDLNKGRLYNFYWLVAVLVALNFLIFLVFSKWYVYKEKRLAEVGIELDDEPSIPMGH
# CHL1/NRT1.1/NPF6.3 = molecular target: T6, CHL1/NRT1.1/NPF6.3 (Arabidopsis thaliana, UniProt Q05085); assay: […]-nitrate uptake and TEVC currents in Xenopus oocytes; conditions: 0.25 and 10 mM K15NO3, pH 5.5 (uptake); 0.5 and 10 mM CsNO3 (TEVC)
# T6 construct: CHL1 cDNA without fluorescent proteins in pOO2-GW; cRNA-injected Xenopus laevis oocytes
# T6 sequence (Q05085 1-590): T5 sequence (Q05085 1-590)
SMILES,FRET ratio change of sensor in yeast (PepTrac4 (PTR4 fusion)),fluorescence response (donor quenching) of sensor in yeast (PepTrac1 (PTR1 fusion)),fluorescence response (donor quenching) of sensor in yeast (PepTrac2 (PTR2 fusion)),fluorescence response (donor quenching) of sensor in yeast (PepTrac5 (PTR5 fusion)),Km [1],15N-nitrate uptake and TEVC currents in Xenopus oocytes (CHL1/NRT1.1/NPF6.3)
NCC(=O)NCC(=O)O [diglycine] (H-Gly-Gly-OH),PepTrac4 responded to substrate addition with a ratio change,"PepTrac1, PepTrac2, and PepTrac5 sensors all responded with donor quenching","PepTrac1, PepTrac2, and PepTrac5 sensors all responded with donor quenching","PepTrac1, PepTrac2, and PepTrac5 sensors all responded with donor quenching",,
O=[N+]([O-])O [nitrate],,,,,~ 75.1 ± 21 μM,"In response to nitrate addition, CHL1 expressing oocytes showed an inward current"
